What was measured:
[1] = tested on: K. pneumoniae 667(phoP、pmrA、blaKPC); assay: Checkerboard assay (MIC, FICI); assay type: cell-based; conditions: K. pneumoniae 667 (phoP, pmrA); antibiotic + β,β-Dim
Method: (§1) The FICI of β,β-Dim–colistin combination was determined by a checkerboard assay. Briefly, two-fold serial dilutions of β,β-Dim and colistin were prepared in a 96-well plate. After incubation at 37 °C for 18 h with bacterial suspension (10^6 CFU/mL), OD600 values were measured. FICI = (MICβ,β-Dim in combination/MICβ,β-Dim) + (MICcolistin in combination/MICcolistin). The synergistic effect of β,β-Dim with other antibiotics was measured in the same way. Synergy was considered to be an FICI ≤ 0.5.

E. coli 13f4(mcr-1) = assay: Checkerboard assay (MIC, FICI); assay type: cell-based; conditions: E. coli 13f4 (mcr-1); antibiotic + β,β-Dim
Method: as §1

[2] = design: method as in PMID 31882661; conditions: cited from earlier work

SMILES | FICI of β,β-Dim combined with the antibiotic [1] | FICI of β,β-Dim combined with the antibiotic (E. coli 13f4(mcr-1)) | reduction of colistin MIC by combination with CCCP [2]
C[C@H]1c2cccc(O)c2C(=O)C2=C(O)[C@]3(O)C(=O)C(C(N)=O)=C(O)[C@@H](N(C)C)[C@@H]3[C@@H](O)[C@@H]21 [doxycycline] | > 1 | > 1 | –
CC[C@H]1OC(=O)C[C@@H](O)[C@H](C)[C@@H](O[C@@H]2O[C@H](C)[C@@H](O[C@H]3C[C@@](C)(O)[C@@H](O)[C@H](C)O3)[C@H](N(C)C)[C@H]2O)[C@@H](CC=O)C[C@@H](C)C(=O)/C=C/C(C)=C/[C@@H]1CO[C@@H]1O[C@H](C)[C@@H](O)[C@@H](OC)[C@H]1OC [tylosin] | > 1 | > 1 | –
CNC(C)C1CCC(N)C(OC2C(N)CC(N)C(OC3OCC(C)(O)C(NC)C3O)C2O)O1 (stereo not drawn) [gentamicin] | > 1 | > 1 | –
CS(=O)(=O)c1ccc([C@@H](O)[C@@H](CF)NC(=O)C(Cl)Cl)cc1 [florfenicol] | > 1 | > 1 | –
CC1(C)S[C@@H]2[C@H](NC(=O)[C@H](N)c3ccccc3)C(=O)N2[C@H]1C(=O)O [ampicillin] | > 1 | > 1 | –
N#CC(C#N)=NNc1cccc(Cl)c1 [CCCP, carbonyl cyanide 3-chloro phenyl hydrazone] | – | – | approximately 8 fold
CO[C@H]1/C=C/O[C@@]2(C)Oc3c(C)c(O)c4c(O)c(c(/C=N/N5CCN(C)CC5)c(O)c4c3C2=O)NC(=O)/C(C)=C\C=C\[C@H](C)[C@H](O)[C@@H](C)[C@@H](O)[C@@H](C)[C@H](OC(C)=O)[C@@H]1C [rifampicin] | > 1 | > 1 | –
O=C(O)c1cn(C2CC2)c2cc(N3CCNCC3)c(F)cc2c1=O [ciprofloxacin] | > 1 | > 1 | –

Source: article PMC12837263, “β,β-Dimethylacrylalkannin Restores Colistin Efficacy Against mcr- and TCS-Mediated Resistant Gram-Negative Bacteria via Membrane Disturbance” (Antibiotics, 2025)
